Source: US10576050B2, “Methods and compositions for treatment of cancer” (ONCONOVA THERAPEUTICS, INC., priority 2012, dated 2020)
Values joined by “and” are separate entries in the source; they are usually repeats but may differ in a detail not shown here. Identical values can stand only once.

Experiments:
[1] = Phase 1 dose escalation study of oral ON 01910.Na in MDS patients refractory to ESA, lenalidomide and DNA methyltransferase inhibitors
Protocol: FIG. 1: Safety and efficacy of Rigosertib (ON 01910.Na) was determined in a dose escalation study in MDS patients refractory to ESA, lenalidomide and DNA Methyltransferase inhibitors. ESA was allowed as concomitant medication. The drug dose was escalated based on a defined escalation dose scheme (70 mg, 140 mg, 280 mg, 560 mg, and 700 mg). Three patients were treated with single escalating weekly doses of oral Rigosertib to determine the oral absorption of Rigosertib.
FIG. 3: The oral absorption and tolerability of Rigosertib administered as single weekly escalating doses in a fasting state were determined in 3 patients. All 3 patients received a 70 mg single oral dose and blood samples for pharmacokinetic analyses were obtained. In the absence of drug-related grade ≥2 toxicity, single dosing was escalated weekly in each patient to 140 mg (week 2), 280 mg (week 3), 560 mg (week 4) and 700 mg (week 5).
FIG. 4: This is a waterfall plot of 8 patients broken down by French American British classification (FAB) as either Refractory Anemia with Excess Blasts-1 (RAEB-1) or RAEB-2. […] The dosage level of each patient is also provided, as well as the patient history of treatment with Azacytidine. The bone marrow blast reduction is measures as a function of FAB classification, dosage and prior treatment with hypomethylating agents.
FIG. 10: Transfusion independence. […] Transfusion independence (TI) defined by absence of RBC transfusion for at least 8 consecutive weeks. Erythroid Response (ER) defined by reduction of at least 4 RBC transfusions/8 weeks compared to pretreatment transfusion number in the previous 8 weeks (RBC Tx for Hb<9.0 g/dL).
Each bar represents one patient. 12 individual MDS patients all categorized as low to intermediate-1 risk (International Prognostic Scoring System—IPSS) and transfusion dependent are shown. […] The decrease in transfusion requirement is plotted for each patient. The absolute differences in red blood cell (RBC) units versus pre-treatment needs are provided.
A total of 16 patients are plotted against their percentage reduction in need for red blood cell transfusions after treatment versus their pre-treatment needs.
Safety and efficacy of a novel oral formulation of ON 01910.Na were determined in a dose escalation study in MDS patients refractory to ESA, lenalidomide and DNA Methyltransferase inhibitors.
ESA was allowed as concomitant medication. The drug dose was escalated based on a defined escalation dose scheme (70, 140, 280, 560, and 700 mg). The drug was administered orally twice a day for 14 days of a 21 day cycle.
Rigosertib (ON 01910.Na) was used in five clinical trials for myelodysplastic syndrome (MDS) in both intravenous and oral formulations.

[2] = Phase II randomized two-arm study of oral Rigosertib (560 mg bid, intermittent or continuous) in transfusion-dependent lower risk MDS patients; settings: for median duration of treatment: FIG. 5
Protocol: Methods: This is a randomized, two-arm study of oral Rigosertib (560 mg bid) administered either intermittently (2 out of 3 weeks) or continuously. Transfusion-dependent patients received at least 4 units RBC transfusions over 8 weeks before randomization as well as transfusions and erythrocyte stimulating agents (ESAs) while on study.
The study design in low or independent transfusion-dependent MDS patients: 43 patients enrolled and randomized 1:1 in two groups. The first group was administered 560 mg capsules BID in days 1-14 of 21 day cycle. The second group was administered 560 mg capsules BID in days 1-21 of 21 day cycle. […] The protocol was amended for the […] on intermittent dosing.
In these cases 560 mg bid dosing was replaced with 560 mg am (30 min+ before breakfast) and 280 mg 2 hs+ after lunch and 30 min+ before dinner. Dysuria questionnaire (American Urological Association) was provided to all patients at baseline, 3 weeks and every 3 cycles thereafter and recommend for vigorous hydration and bicarbonate prn.
The ongoing phase II trial 09-05 is designed to evaluate oral Rigosertib as a single agent in transfusion-dependent lower risk MDS patients. This trial is a randomized, two-arm study of oral Rigosertib (560 mg bid) administered either intermittently (2 out of 3 weeks) or continuously. Transfusion-dependent patients must have received at least 4 units of RBC transfusions over 8 weeks before randomization and can receive transfusions and erythrocyte stimulating agents (ESAs) while on study.

[3] = Oral administration of Rigosertib 25 mg dose capsule in MDS patients, plasma level
[4] = 8 RAEB-1/RAEB-2 patients, FIG. 4
[5] = individual patients achieving transfusion independence
[6] = 34 patients dosed intermittently
[7] = individual transfusion responders

COc1cc(OC)c(/C=C/S(=O)(=O)Cc2ccc(OC)c(NCC(=O)[O-])c2)c(OC)c1.[Na+] [Rigosertib, sodium (E)-2-{2-methoxy-5-[(2′,4′,6′-trimethoxystyrylsulfonyl)methyl]phenylamino}acetate]
patients with dose limiting toxicity (DLT) during first 3-week cycle ([1]; 700 mg dose level, dysuria and shortness of breath): One
patients responding (bone marrow blast reduction) [1, 4]: 6 of 8
patients with bone marrow complete response (BM CR) [1, 4]: 2
patients showing decrease in transfusion dependence based on RBC requirement (absolute differences) ([1]; 12 low to intermediate-1 risk transfusion dependent MDS patients, oral, 8 weeks, FIG. 13): 3 of 12
patients showing decrease in transfusion dependence based on decrease in percentage of RBC requirement ([1]; 16 patients, FIG. 14): 5 of 16
tolerability of oral formulation ([1]; 70-700 mg orally twice a day, 14 days of a 21 day cycle): well tolerated
# Units/56 ds Trt ([1]; RBC units per 56 days of treatment, individual patients): 8.0 and 10.5 (2×) and 3.2 and 3.1 and 0.3 (2×) and 4.4 and 11.6 (2×) and 7.1 and 2.0 and 4.3 and 2.9 and 4.9 and 6.4
% Reduction ([1]; RBC units vs pre-treatment, individual patients): 100% and 74% and −68% and −49% and −87% and −45% and −88% and 44% and −41% and −50% and 5% and −29% and −52% and −18% and 7% and −3%
# Units during Trt ([1]; RBC units, individual patients, one table row per patient): 2 (4×) and 17 and 10 and 16 (3×) and 13 and 4 (4×) and 21 and 8
safe and efficacious dose ([1]; bid, oral, 14 days of a 21 day cycle): 560 mg
TX response ([1]; individual Low-Int-1 risk transfusion dependent MDS patients, 560 or 700 mg bid, one table row per patient): No
Duration Tx indep [1, 5]: 16 and 47+ (2×) and 8
Onset Tx indep week [1, 5]: 10 and 7 and 6 and 3
Cmax as a function of dose ([1]; single weekly escalating oral doses 70-700 mg, fasting, 3 patients): increased linearly
Red RBC Units ([1]; units/56 days on treatment vs units in 56 days pre-treatment, individual patients): 4.0 and 4.5 and −6.8 and −2.9 and −3.7 and −3.6 and −5.7 and 3.6 and −4.9 and −2.0 and 0.5 and −1.7 and −3.1 and −1.1 and 0.4 and −0.4
overall tolerability of oral Rigosertib ([2]; 560 mg bid): well tolerated
patients achieving TI, intent-to-treat analysis ([2]; 14/39 patients, intermittent dosing): 36%
patients achieving transfusion independence ([2]; 15 patients treated with intermittent dosing for at least 8 weeks): 47%
median duration of transfusion independence ([2]; 15 responders, intermittent dosing (conclusion)): 17 weeks
patients achieving TI, intent-to-treat analysis ([2]; 17/48 patients (conclusion)): 35%
patients with transfusion independence ([2]; 26 evaluable patients (8 wks+ treatment), intermittent 560 mg bid, FIG. 9): 50% and 46%
Abdominal Pain/discomfort, GRADE 2 incidents [2, 6]: 1
Abdominal Pain/discomfort, GRADE 3 incidents [2, 6]: 0
Abdominal Pain/discomfort, TOTAL % [2, 6]: 3%
Diarrhea, GRADE 2 incidents [2, 6]: 1
Diarrhea, GRADE 3 incidents [2, 6]: 0
Diarrhea, TOTAL % [2, 6]: 3%
Fatigue, GRADE 2 incidents [2, 6]: 5
Fatigue, GRADE 3 incidents [2, 6]: 0
Fatigue, TOTAL % [2, 6]: 15%
Hematuria or Cytitis, GRADE 2 incidents [2, 6]: 1
Hematuria or Cytitis, GRADE 3 incidents [2, 6]: 5
Hematuria or Cytitis, TOTAL % [2, 6]: 18%
Insomnia, GRADE 2 incidents [2, 6]: 1
Insomnia, GRADE 3 incidents [2, 6]: 0
Insomnia, TOTAL % [2, 6]: 3%
Nausea, GRADE 2 incidents [2, 6]: 3
Nausea, GRADE 3 incidents [2, 6]: 0
Nausea, TOTAL % [2, 6]: 9%
Neutropenia, GRADE 2 incidents [2, 6]: 2
Neutropenia, GRADE 3 incidents [2, 6]: 2
Neutropenia, TOTAL % [2, 6]: 6%
Urinary urgency, GRADE 2 incidents [2, 6]: 12
Urinary urgency, GRADE 3 incidents [2, 6]: 0
Urinary urgency, SAE [2, 6]: 1
Urinary urgency, TOTAL % [2, 6]: 35%
patients achieving transfusion independence ([2]; 36 patients on intermittent dosing treated for at least 8 consecutive weeks): 39%
Responders (overall transfusion response) ([2]; Continuous regimen): 2
Responders (overall transfusion response) ([2]; Intermittent regimen): 13
Responders (overall transfusion response) ([2]; Total): 15
patients with grade 2+ urinary side effects ([2]; continuous dosing arm): 5 of 9
median duration of treatment ([2]; continuous dosing, 9 patients): 24 weeks
patients achieving transfusion independence ([2]; continuous dosing, nine patients (8 treated for at least 8 weeks)): two
patients progressed ([2]; four evaluable RAEB patients): one
patients achieving bone marrow complete response according to IWG 2006 criteria ([2]; four evaluable RAEB patients, one unconfirmed): three
Response (bone marrow, IWG 2006 criteria) ([2]; individual RAEB-1/RAEB-2 patients): BMCR (2×) and BMCRu
Response week Duration (transfusion independence) [2, 7]: ≥ 48 weeks and ≥ 37 weeks and 17 weeks and 37+ weeks and 9 weeks and 28 weeks and 30 weeks and 8 weeks and 17+ weeks and 12 weeks and 14+ weeks and 48+ weeks
Response week Onset (transfusion response) [2, 7]: 1 weeks (8×) and 24 weeks and 14 weeks and 4 weeks and 19 weeks and 13 weeks
patients with urinary grade 2+ toxicity ([2]; intermittent dosing with option of dose interruption/reduction): 4/20
median duration of treatment ([2]; intermittent dosing, 34 patients): not reached
patients achieving transfusion independence ([2]; intermittent dosing, at least 8 consecutive weeks, 15 patients (conclusion)): 45%
interaction between Rigosertib and ESA ([2]; lower-risk transfusion dependent MDS, concomitant ESA): synergy
patients developing grade 2 urinary toxicity ([2]; twelve patients, 560 mg AM and 280 mg PM, median 6 weeks): one
Bone marrow blast values ([2]; week 15 follow-up, individual RAEB-1/RAEB-2 patients): 4% and 10% and 77% and 3%
Bone marrow blast values ([2]; week 30 follow-up, individual RAEB-1/RAEB-2 patients): 4% and 9%
Bone marrow blast values ([2]; week 45 follow-up, individual RAEB-1/RAEB-2 patients): 5%
Bone marrow blast values ([2]; week 60 follow-up, individual RAEB-1/RAEB-2 patients): 5%
half-life ([3]; human, plasma, po, 25 mg): ~10 h
plasma peak level ([3]; oral, 25 mg dose capsule, MDS patients): 2 to 4 µM
